Reference: article PMC7601839, “Anti-Acne Effects of Cembrene Diterpenoids from the Cultured Soft Coral Sinularia flexibilis” (Marine Drugs, 2020)

Experiments:
[1] = test system: iNOS; parameters: method as in PMID 23675440; details: LPS-stimulated murine macrophages; cited from earlier work
[2] = test system: iNOS; parameters: method as in PMID 23774887; details: LPS-stimulated RAW264.7 macrophage cells; cited from earlier work
[3] = test system: COX-2; parameters: method as in PMID 23774887; details: LPS-stimulated RAW264.7 macrophage cells; cited from earlier work
[4] = test system: COX-2; parameters: method as in PMID 23675440; details: LPS-stimulated murine macrophages; cited from earlier work
[5] = test system: RAW 264.7 cells; assay: Survival rate of RAW 264.7 cells by MTT assay; assay type: cell-based; details: LPS-induced RAW 264.7 cells, 24 h, 20 μM
Method: (§1) Anti-inflammatory effects were analyzed in RAW 264.7 cells, which were cultured in DMEM with 10% FBS, 1% L-glutamine, and 1% penicillin-streptomycin, and maintained at 37 °C in a 5% CO2 atmosphere. RAW 264.7 cells (4.0 × 10^5 cells/mL) were seeded in 96-well plates and co-treated with LPS (500 ng/mL) and test samples. After 24 h, NO production was determined by Griess reagent, and the absorption was detected at 530 nm. The percentage inhibition of NO production was presented as the anti-inflammatory activity. PGE2 concentrations in cell culture media were determined with a PGE2 enzyme-linked immunosorbent assay (ELISA) kit (Enzo Life Sciences, Farmingdale, NY, USA). The survival rate of RAW 264.7 cells was detected using an MTT assay.

[6] = test system: A375 melanoma cells; parameters: method as in PMID 23880933; details: cited from earlier work
[7] = test system: LPS-induced RAW 264.7 cells (NO production); assay: NO production (Griess) in LPS-induced RAW 264.7 cells; assay type: cell-based
Method: as §1

| Compound | expression of induced nitric oxide synthase (iNOS) [1] | accumulation of the proinflammatory iNOS protein [2] | accumulation of COX-2 protein [3] | expression of cyclooxygenase (COX)-2 [4] | Cell Viability (%) [5] | proliferation and migration of A375 melanoma cells [6] | inhibitory effects on NO expression [7] | NO Inhibition (%) ([7]; 24 h, 20 μM) |
| --- | --- | --- | --- | --- | --- | --- | --- | --- |
| C=C1C(=O)O[C@]2(C)CC[C@@H]1C[C@@H]1O[C@@]1(C)CC/C=C(\C)CC[C@H]2OC(C)=O [Ya-s11, 11-Episinulariolide acetate] | inhibits the expression | significantly inhibit | could reduce | inhibits the expression |  |  |  |  |
| sinulariolide [SC-4] |  | significantly inhibit |  |  | 98.8 ± 1.2% | inhibits the proliferation and migration | no inhibitory effects | −4.3 ± 1.6% |
